Source: patent US8426437B2, “Pyrroloquinoline derivatives and their use as protein kinases inhibitors” (Pierre Fabre Medicament, priority 2005, dated 2013)
pIC50: −log10 of the molar value.

Key:
[1] = molecular target: T1, PIM-1 (h) (Homo sapiens, UniProt P11309); experiment: Upstate kinase panel: PIM-1; type: biochemical; conditions: compound 20 μM, 10 μM ATP, read-out: % inhibition at 20 μMol
T1 construct: purchased Upstate
Protocol: (§1) These kinases are produced by Upstate and screened according to the respective protocols indicated by the supplier (http://www.upstate.com/features/kp_protocols.asp). Examples 1, 12, 166 and 238 were tested at a concentration of 20 μM, 10 μM, 1 μM and 1 μM respectively in the presence of 10 μM of ATP for examples 1 and 12 and at the concentrations of ATP shown in parentheses for examples 166 and 238. The results shown in Table VII correspond to percentage inhibition of the kinase tested in the presence of the compound, relative to a control effected without the compound.

[2] = molecular target: T2, Met (h) (Homo sapiens, UniProt P08581); experiment: Upstate kinase panel: Met; type: biochemical; conditions: compound 20 μM, 10 μM ATP, read-out: % inhibition at 20 μMol
T2 construct: purchased Upstate
T2 sequence (P08581 25-1390): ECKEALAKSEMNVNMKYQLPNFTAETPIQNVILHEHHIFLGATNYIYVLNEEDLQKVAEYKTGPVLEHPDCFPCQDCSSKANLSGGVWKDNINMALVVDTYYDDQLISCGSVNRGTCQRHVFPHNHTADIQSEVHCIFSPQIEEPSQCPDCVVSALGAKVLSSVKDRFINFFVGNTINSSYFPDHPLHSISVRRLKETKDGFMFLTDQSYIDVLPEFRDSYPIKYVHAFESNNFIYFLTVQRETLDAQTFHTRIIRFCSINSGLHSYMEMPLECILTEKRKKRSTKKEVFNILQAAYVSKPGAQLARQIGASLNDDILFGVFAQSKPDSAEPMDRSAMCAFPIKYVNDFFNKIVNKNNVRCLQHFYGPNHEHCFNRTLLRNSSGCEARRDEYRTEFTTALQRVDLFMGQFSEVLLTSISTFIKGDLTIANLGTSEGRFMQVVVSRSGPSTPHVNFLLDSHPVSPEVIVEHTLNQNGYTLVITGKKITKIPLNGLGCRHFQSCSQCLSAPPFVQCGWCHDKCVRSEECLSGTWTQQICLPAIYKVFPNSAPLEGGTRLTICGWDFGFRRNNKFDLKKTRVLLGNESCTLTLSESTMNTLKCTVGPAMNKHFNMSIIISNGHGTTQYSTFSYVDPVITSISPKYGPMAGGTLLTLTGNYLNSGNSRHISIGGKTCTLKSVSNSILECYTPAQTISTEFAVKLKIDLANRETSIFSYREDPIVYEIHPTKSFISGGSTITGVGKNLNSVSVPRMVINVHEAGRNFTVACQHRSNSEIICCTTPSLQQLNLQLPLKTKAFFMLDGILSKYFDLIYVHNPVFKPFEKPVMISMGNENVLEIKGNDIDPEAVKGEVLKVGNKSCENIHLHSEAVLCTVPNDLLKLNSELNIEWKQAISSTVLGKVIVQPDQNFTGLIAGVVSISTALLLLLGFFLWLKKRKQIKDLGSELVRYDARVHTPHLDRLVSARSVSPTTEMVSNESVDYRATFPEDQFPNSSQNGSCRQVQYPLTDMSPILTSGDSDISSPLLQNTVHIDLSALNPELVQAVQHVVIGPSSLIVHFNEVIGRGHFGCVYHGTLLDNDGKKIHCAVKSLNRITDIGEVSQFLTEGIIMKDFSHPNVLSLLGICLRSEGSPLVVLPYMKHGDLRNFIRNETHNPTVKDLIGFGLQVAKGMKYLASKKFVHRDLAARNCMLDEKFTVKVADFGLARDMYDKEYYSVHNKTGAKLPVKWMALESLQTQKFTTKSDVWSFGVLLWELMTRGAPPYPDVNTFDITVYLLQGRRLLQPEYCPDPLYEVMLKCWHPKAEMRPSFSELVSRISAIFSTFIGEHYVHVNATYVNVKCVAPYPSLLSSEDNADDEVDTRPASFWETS
Protocol: as §1

[3] = molecular target: T3, PIM-1 (Homo sapiens, UniProt P11309); experiment: Inhibition of kinase PIM-1 (Kinase-Glo); type: biochemical; conditions: PIM-1 0.625 μg/ml, 10 μM ATP, forty minutes at 30° C.
T3 construct: purchased Upstate 14-573
T3 sequence (P11309 whole entry): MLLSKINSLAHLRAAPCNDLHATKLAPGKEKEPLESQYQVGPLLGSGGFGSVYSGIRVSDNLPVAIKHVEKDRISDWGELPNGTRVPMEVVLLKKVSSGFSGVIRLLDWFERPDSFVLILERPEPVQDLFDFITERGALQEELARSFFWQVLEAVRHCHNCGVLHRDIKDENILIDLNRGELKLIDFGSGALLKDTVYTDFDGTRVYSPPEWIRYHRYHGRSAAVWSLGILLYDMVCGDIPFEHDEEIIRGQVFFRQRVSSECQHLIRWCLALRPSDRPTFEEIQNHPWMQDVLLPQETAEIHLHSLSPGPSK
Summary of the method: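 PIM-1 (0.625 μg/ml) in MOPS/NaOH pH 7 with Mg acetate was run with 70 μM S6 kinase/Rsk2 peptide and 10 μM ATP, with compound at 10 nM–30 μM final.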

[4] = molecular target: T4, RET (h) (Homo sapiens, UniProt P07949); experiment: Upstate kinase panel: RET; type: biochemical; conditions: compound 20 μM, 10 μM ATP, read-out: % inhibition at 20 μMol
T4 construct: purchased Upstate
T4 sequence (P07949 29-1114): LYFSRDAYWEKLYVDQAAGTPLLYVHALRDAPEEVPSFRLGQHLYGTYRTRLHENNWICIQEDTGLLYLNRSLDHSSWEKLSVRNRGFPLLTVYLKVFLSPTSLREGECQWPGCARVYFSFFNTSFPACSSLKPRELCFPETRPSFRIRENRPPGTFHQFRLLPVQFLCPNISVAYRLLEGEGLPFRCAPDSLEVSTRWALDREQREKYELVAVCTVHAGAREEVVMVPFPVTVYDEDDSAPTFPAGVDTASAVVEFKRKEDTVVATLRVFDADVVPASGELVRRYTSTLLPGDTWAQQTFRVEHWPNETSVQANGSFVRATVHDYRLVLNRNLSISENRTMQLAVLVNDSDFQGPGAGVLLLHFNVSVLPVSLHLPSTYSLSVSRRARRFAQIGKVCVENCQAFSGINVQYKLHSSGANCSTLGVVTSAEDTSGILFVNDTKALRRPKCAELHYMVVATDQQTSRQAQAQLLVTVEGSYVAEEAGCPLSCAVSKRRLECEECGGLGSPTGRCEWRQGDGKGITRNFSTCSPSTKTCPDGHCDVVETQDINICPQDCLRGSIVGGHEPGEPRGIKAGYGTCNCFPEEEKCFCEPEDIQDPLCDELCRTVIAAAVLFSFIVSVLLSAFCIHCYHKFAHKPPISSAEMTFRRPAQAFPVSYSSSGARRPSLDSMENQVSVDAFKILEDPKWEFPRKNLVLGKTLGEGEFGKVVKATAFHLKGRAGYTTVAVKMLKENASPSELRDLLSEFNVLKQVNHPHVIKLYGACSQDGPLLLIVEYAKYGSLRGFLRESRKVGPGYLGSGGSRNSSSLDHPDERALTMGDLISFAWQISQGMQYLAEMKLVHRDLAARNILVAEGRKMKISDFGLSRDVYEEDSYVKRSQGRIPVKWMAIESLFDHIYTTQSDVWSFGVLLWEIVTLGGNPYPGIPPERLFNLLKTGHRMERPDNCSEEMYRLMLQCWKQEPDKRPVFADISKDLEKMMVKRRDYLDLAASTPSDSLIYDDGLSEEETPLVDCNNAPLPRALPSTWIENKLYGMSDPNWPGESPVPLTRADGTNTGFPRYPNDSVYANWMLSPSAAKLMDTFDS
Protocol: as §1

[5] = molecular target: T5, TrkA (h) (Homo sapiens, UniProt P04629); experiment: Upstate kinase panel: TrkA; type: biochemical; conditions: compound 20 μM, 10 μM ATP, read-out: % inhibition at 20 μMol
T5 construct: purchased Upstate
T5 sequence (P04629 33-796): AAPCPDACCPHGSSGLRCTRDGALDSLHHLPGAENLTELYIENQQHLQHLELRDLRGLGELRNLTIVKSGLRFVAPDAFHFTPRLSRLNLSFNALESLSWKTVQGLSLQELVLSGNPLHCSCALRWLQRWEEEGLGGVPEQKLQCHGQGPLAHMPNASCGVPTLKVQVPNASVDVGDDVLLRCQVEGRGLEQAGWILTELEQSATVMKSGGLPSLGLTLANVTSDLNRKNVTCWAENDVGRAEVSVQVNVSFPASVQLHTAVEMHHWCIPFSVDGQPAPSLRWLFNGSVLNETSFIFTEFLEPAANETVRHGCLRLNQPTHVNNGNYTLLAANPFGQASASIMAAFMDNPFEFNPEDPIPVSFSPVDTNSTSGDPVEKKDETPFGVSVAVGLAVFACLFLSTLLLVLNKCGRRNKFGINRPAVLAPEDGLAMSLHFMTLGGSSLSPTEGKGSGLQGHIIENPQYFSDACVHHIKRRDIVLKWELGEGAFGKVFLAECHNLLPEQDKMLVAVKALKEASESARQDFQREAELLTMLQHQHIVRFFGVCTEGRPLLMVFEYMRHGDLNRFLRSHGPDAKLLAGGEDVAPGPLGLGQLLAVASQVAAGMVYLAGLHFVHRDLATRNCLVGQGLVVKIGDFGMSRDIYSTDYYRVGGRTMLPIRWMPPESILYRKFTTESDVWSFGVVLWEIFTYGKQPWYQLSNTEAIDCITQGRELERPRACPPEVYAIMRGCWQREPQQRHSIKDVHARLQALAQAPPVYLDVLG
Protocol: as §1

[6] = molecular target: T6, TrkB (Homo sapiens, UniProt Q16620); experiment: Inhibition of kinase TrkB (Kinase-Glo); type: biochemical; conditions: TrkB 4 μg/ml, 40 μM ATP, two hours at 30° C.
T6 construct: purchased Upstate 14-507
T6 sequence (Q16620 32-822): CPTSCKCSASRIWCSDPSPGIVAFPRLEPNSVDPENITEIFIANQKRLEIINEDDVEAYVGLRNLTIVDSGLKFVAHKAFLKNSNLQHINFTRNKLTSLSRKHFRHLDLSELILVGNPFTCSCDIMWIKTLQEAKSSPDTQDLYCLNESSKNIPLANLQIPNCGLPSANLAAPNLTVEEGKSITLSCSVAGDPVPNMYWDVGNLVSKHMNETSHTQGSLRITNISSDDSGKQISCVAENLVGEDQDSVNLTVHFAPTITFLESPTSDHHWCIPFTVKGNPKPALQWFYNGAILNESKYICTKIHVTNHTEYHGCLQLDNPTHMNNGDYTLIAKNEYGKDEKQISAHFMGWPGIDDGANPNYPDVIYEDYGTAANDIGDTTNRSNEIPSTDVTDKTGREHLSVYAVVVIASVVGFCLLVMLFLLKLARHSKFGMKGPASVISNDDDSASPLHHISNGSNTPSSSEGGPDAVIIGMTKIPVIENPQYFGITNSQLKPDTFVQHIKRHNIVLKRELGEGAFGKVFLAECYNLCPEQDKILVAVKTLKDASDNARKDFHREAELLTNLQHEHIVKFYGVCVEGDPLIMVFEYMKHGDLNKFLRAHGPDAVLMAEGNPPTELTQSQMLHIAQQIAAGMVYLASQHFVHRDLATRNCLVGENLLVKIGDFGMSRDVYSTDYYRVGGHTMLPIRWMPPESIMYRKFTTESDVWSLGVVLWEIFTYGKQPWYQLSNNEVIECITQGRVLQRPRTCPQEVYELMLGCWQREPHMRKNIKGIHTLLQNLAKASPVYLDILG
Summary of the method: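 TrkB at 4 μg/ml with 2.5 mg/ml poly-EY and 40 μM ATP in MOPS/NaOH pH 7 buffer with MgAc, EDTA, DTT, vanadate and glycerophosphate; compounds at final 10 nM–30 μM. After 2 h at 30°C, remaining ATP measured by Kinase-Glo luminescence.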

[7] = molecular target: T7, Hck (h) (Homo sapiens, UniProt P08631); experiment: Upstate kinase panel: Hck; type: biochemical; conditions: compound 10 μM, 10 μM ATP, read-out: % inhibition at 10 μMol
T7 construct: purchased Upstate
Protocol: as §1

[8] = molecular target: T8, FGFR1 (h) (Homo sapiens, UniProt P11362); experiment: Upstate kinase panel: FGFR1; type: biochemical; conditions: compound 1 μM, ATP (200), read-out: % inhibition at 1 μMol
T8 construct: purchased Upstate
Protocol: as §1

[9] = system: MDA-453; experiment: WST test, inhibition of proliferation of MDA-453; type: cell-based; conditions: 96 h; line MDA-453, tissue of origin Breast; four days of incubation, WST-1
Protocol: (§2) The inhibition of the proliferation of cell lines by certain compounds of the invention was tested. […] In the example, the lines used were derived from cancers of the uterus, central nervous system, colon, stomach, head and neck, lung, breast, pancreas, and kidney, as well as from lymphoma, myeloma, pleura, or from melanoma.
(§3) The WST test for measuring cell proliferation and viability (Roche Applied Science) is based on cleavage of a tetrazolium salt by the mitochondrial dehydrogenases in viable cells.
(§4) After four days of incubation of the compounds with the cell line, 14 μl of WST-1 reagent is added to each well and the plates are incubated for four hours at 37° in humid atmosphere at 5% CO2. The level of formazan formed is then determined by spectrophotometry at 450 nm whereas a reference is measured at 650 nm. A control with untreated cells is represented by six wells per plate and the group of treated cells is produced in triplicate for each of the concentrations measured.
(§5) The compounds are tested at five concentrations between 10 nM and 100 μM and two cytotoxic agents are used as controls: adriamycin and 5-fluorouracil.

[10] = system: 1752L; experiment: WST test, inhibition of proliferation of 1752L; type: cell-based; conditions: 96 h; line 1752L, tissue of origin Pleuromesothelium; four days of incubation, WST-1
Protocol: as §2, §3, §4, §5

[11] = system: SW756; experiment: WST test, inhibition of proliferation of SW756; type: cell-based; conditions: Homo sapiens, 96 h; line SW756, tissue of origin Cervix; four days of incubation, WST-1
Protocol: as §2, §3, §4, §5

[12] = system: HT144; experiment: WST test, inhibition of proliferation of HT144; type: cell-based; conditions: Homo sapiens, HT-144, 96 h; line HT144, tissue of origin Melanoma; four days of incubation, WST-1
Protocol: as §2, §3, §4, §5

[13] = system: 536L; experiment: WST test, inhibition of proliferation of 536L; type: cell-based; conditions: 96 h; line 536L, tissue of origin Head/neck; four days of incubation, WST-1
Protocol: as §2, §3, §4, §5

[14] = molecular target: T9, Rsk2 (h) (Homo sapiens, UniProt P51812); experiment: Upstate kinase panel: Rsk2; type: biochemical; conditions: compound 1 μM, ATP (10), read-out: % inhibition at 1 μMol
T9 construct: purchased Upstate
Protocol: as §1

[15] = system: MDA-468; experiment: WST test, inhibition of proliferation of MDA-468; type: cell-based; conditions: 96 h; line MDA-468, tissue of origin Breast; four days of incubation, WST-1
Protocol: as §2, §3, §4, §5

[16] = system: U251; experiment: WST test, inhibition of proliferation of U251; type: cell-based; conditions: Homo sapiens, U-251, 96 h; line U251, tissue of origin CMS; four days of incubation, WST-1
Protocol: as §2, §3, §4, §5

T1 sequence (P11309 whole entry): as the sequence (P11309 whole entry) above

## CCOC(=O)c1c[nH]c2c(=O)[nH]c3ccccc3c12 [Compound 1, 4-Oxo-4,5-dihydro-3H-pyrrolo[2,3-c]quinoline-1-ethyl carboxylate]
[1]
  inhibition at 20 µM: 92%
[2]
  inhibition at 20 µM: 52%
[3]
  pIC50: 4.00 to 5.00
[4]
  inhibition at 20 µM: 99%
[5]
  inhibition at 20 µM: 97%

## CCOC(=O)c1c[nH]c2c(=O)[nH]c3ccc(S(=O)(=O)Nc4ccc(F)cc4)cc3c12 [Compound 12, 8-(4-Fluorophenylsulfamoyl)-4-oxo-4,5-dihydro-3H-pyrrolo[2,3-c]quinoline-1-ethyl carboxylate]
[6]
  pIC50: 5.00 to 6.00
[7]
  inhibition at 10 µM: 91%

## CCOC(=O)c1c[nH]c2c(=O)[nH]c3ccc(-c4cccc(S(C)(=O)=O)c4)cc3c12 [Compound 238, 8-(3-Methanesulfonyl-phenyl)-4-oxo-4,5-dihydro-3H-pyrrolo[2,3-c]quinoline-1-ethyl carboxylate]
[8]
  inhibition at 1 µM: 51%
[9]
  pIC50: 5.15
[10]
  pIC50: 4.46
[11]
  pIC50: 4.46
[12]
  pIC50: 4.51
[13]
  pIC50: 4.44
[14]
  inhibition at 1 µM: 25%
[15]
  pIC50: 4.42
[16]
  pIC50: 4.48
